Laboratory results taken from patent US20050054582A1, “Para-amino benzoic acids as integrin antagonists” (priority 2001, published 2005).
Like-named read-outs stand apart in the source and are kept apart here.

What was measured:
[1] = test system: adhesion of Ramos cells to VCAM-1; assay: Adhesion of Ramos cells to immobilized VCAM-1 (domains 1-3); format: cell-based; conditions: Homo sapiens
Text: In Vitro Assay: Adhesion of Ramos Cells to Immobilized VCAM-1 (Domains 1-3) Preparation of VCAM-1 (Extracellular Domains 1-3)
Complementary DNA (cDNA) encoding 7-domain form of VCAM-1 (GenBank accession #M60335) was obtained using Rapid-Screen™ cDNA library panels (OriGene Technologies, Inc) at Takara Gene Analysis Center (Shiga, Japan). The primers used were 5′-CCAAGGCAGAGTACGCAAAC-3′ (sense) and 5′-TGGCAGGTATTATTAAGGAG-3′ (antisense). PCR amplification of the 3-domain VCAM-1 cDNA was perform using Pfu DNA polymerase (Stratagene) with the following sets of primers: (U-VCAMd1-3) 5′-CCATATGGTACCTGATCAATTTAAAATCGAGACCACCCCAGAA-3′; (L-VCAMdl-3) 5-CCATATAGCAATCCTAGGTCCAGGGGAGATCTCAACAGTAAA-3′. PCR cycle was 94° C. for 45 sec, 55° C. for 45 sec, 72° C. for 2 min, repeating 15 cycles. After the purification of the PCR product, the fragment was digested with KpnI-AvrII. The digested fragment was ligated into pBluescript IISK(−) (Strategene), which was linearized by digesting with KpnI-XhoI. The ligation was followed by transformation to a Dam/Dcm methylase-free E. coli strain SCS110 (Strategene) to create the donor plasmid […]. To direct VCAM-1 molecule into the insect cell secretory pathway, the VCAM-1 coding sequence was fused to signal peptide sequence of honeybee melittin. The resulting melittin-VCAM fusion was placed in correct orientation to the baculovirus polyhedrin promoter. Baculovirus transfer vector containing first 3-domain form VCAM-1 (pH10) was constructed by ligation of 0.9 kb fragment from AvrII/Klenow/BclI digests of pH7 into SalI/Klenow/BamHI digests of pMelBacB (Invitrogen). Recombinant baculovirus was generated by using Bac-N-Blue™ Transfection kit (Invitrogen) according to the manufacture's instruction. The recombinant virus was amplified by infection to High-Five™ insect cells for 5-6 days, and virus titer was determined by plaque assay.
High-Five™ insect cells were pelleted in a 225 ml conical tube by centrifugation at 1000 rpm for 5 min. After discarding the supernatant, the pellet was resuspended in 1.5×10^9 pfu (MOI=5) of high-titer virus solution, followed by incubation for 1.5 hours at room temperature. The cells were pelleted again and washed once in fresh Express Five™ serum free medium. The cells were pelleted again and finally, resuspended in 200 ml of fresh Express Five TM medium, transferred to a 1,000 ml shaker flask, and incubated in a shaker at 27° C., 130 rpm, for 48 hours before the culture supernatant was collected. The purification of 3-domain form of VCAM-1 from the culture supernatant was performed by one-step anion exchange chromatography. Protein concentration was determined by using Coomassie protein assay reagent (Pierce) according to the manufacture's instruction.
Preparation of VCAM-1 Coated Microtiter Plates
Recombinant human VCAM-1 (extracellular domains 1-3) was dissolved at 1.0 μg/ml in PBS. Each well of the microtiter plates (Nalge Nunc International, Fluoronunc Cert, 437958) was coated with 100 μl of substrate or for background control with buffer alone for 15 hours at 4 C. After discarding the substrate solution, the wells were blocked using 150 μl per well of block solution (Kirkegaard Perry Laboratories, 50-61-01) for 90 minutes. The plate was washed with wash buffer containing 24 mM Tris-HCl (pH 7.4), 137 mM NaCl, […] and 2 mM MnCl2 just before addition of the assay.
In Vitro Assay using Ramos Cells
Preparation of Fluorescence Labeled Ramos Cells:
Ramos cells (American Type Culture Collection, Clone CRL-1596) were cultured in RPMI 1640 medium (Nikken Bio Medical Laboratory, CM1101) supplemented with 10% fetal bovine serum (Hyclone, A-1119-L), 100 U/ml penicilin (Gibco BRL, 15140-122) and 100 μg/ml streptomycin (Gibco BRL, 15140-122) in a humidified incubator at 37° C. with 5% CO2. […]

[2] = observed IC50 value ranges, Table 4 does not say whether Ramos-VCAM-1 or Jurkat-VCAM-1, read-out: IC50

| Structure (SMILES) | IC50 [1, 2] | melting point | IC50 ([1]; Ramos) |
| --- | --- | --- | --- |
| Cc1ccccc1NC(=O)Nc1ccc(CC(=O)N[C@@H](CCCCN)C(=O)Nc2ccc(C(=O)O)cc2)cc1.O=C(O)C(F)(F)F [Example 53a] | < 500 nM | 168 to 169 °C | – |
| Cc1ccccc1NC(=O)Nc1ccc(CC(=O)NC2CCN(c3ccc(C(=O)O)cc3)C2)cc1 (stereo not drawn) [Example 50, 4-[3-({[4-({[(2-methylphenyl)amino]carbonyl}amino)phenyl]acetyl}amino)-1-pyrrolidinyl]benzoic acid] | – | 239 to 242 °C | < 500 nM |
| Cc1ccccc1NC(=O)Nc1ccc(CC(=O)NCC(=O)Nc2ccc(C(=O)O)cc2)cc1 [Example 39, 4-[(N-{[4-({[(2-methylphenyl)amino]carbonyl}amino)phenyl]acetyl}glycyl)amino]benzoic acid] | – | 268 to 271 °C | < 500 nM |
| Cc1ccccc1NC(=O)Nc1ccc(CC(=O)NC2CCCN(c3ccc(C(=O)O)cc3)C2)cc1 (stereo not drawn) [Example 49, 4-[3-({[4-({[(2-methylphenyl)amino]carbonyl}amino)phenyl]acetyl}amino)-1-piperidinyl]benzoic acid] | – | 236 to 238 °C | < 500 nM |
| Cc1ccccc1NC(=O)Nc1ccc(CC(=O)N[C@H](CCCCN)C(=O)Nc2ccc(C(=O)O)cc2)cc1.O=C(O)C(F)(F)F [Example 54, 4-[(N^2-{[4-({[(2-methylphenyl)amino]carbonyl}amino)phenyl]acetyl}-D-lysyl)amino]benzoic acid trifluoroacetate] | < 500 nM | 73 to 75 °C | – |
| Cc1ccccc1NC(=O)Nc1ccc(CC(=O)NC(CC(C)C)C(=O)Nc2ccc(C(=O)O)cc2)cc1 (stereo not drawn) [Example 37] | – | 219 to 223 °C | < 500 nM |
| Cc1ccccc1NC(=O)Nc1ccc(CC(=O)NCC(=O)N(CC(C)C)c2ccc(C(=O)O)cc2)cc1 [Example 51, 4-[isobutyl(N-{[4-({[(2-methylphenyl)amino]carbonyl}amino)phenyl]acetyl}glycyl)amino]benzoic acid] | – | 131 to 132 °C | > 10000 nM |
| Cc1ccccc1NC(=O)Nc1ccc(CC(=O)N(CCCCN)CC(=O)Nc2ccc(C(=O)O)cc2)cc1 [Example 57, 4-[(N-(4-aminobutyl)-N-{[4-({[(2-methylphenyl)amino]carbonyl}amino)-phenyl]acetyl}glycyl)amino]benzoic acid] | – | – | < 500 nM |
| CCN1CCCC1CN(CC(=O)Nc1ccc(C(=O)O)cc1)C(=O)Cc1ccc(NC(=O)Nc2ccccc2C)cc1 (stereo not drawn) [Example 59, 4-[(N-[(1-ethyl-2-pyrrolidinyl)methyl]-N-{[4-({[(2-methylphenyl)amino]-carbonyl}amino)phenyl]acetyl}glycyl)amino]benzoic acid] | < 500 nM | – | – |
| CCCN(CC(=O)Nc1ccc(C(=O)O)cc1)C(=O)Cc1ccc(NC(=O)Nc2ccccc2C)cc1 [Example 65, 4-[(N-{[4-({[(2-methylphenyl)amino]carbonyl}amino)phenyl]acetyl}-N-propylglycyl)amino]benzoic acid] | – | – | < 500 nM |
| Cc1ccccc1NC(=O)Nc1ccc(CC(=O)N(CCCN2CCCC2=O)CC(=O)Nc2ccc(C(=O)O)cc2)cc1 [Example 66, 4-({N-{[4-({[(2-methylphenyl)amino]carbonyl}amino)phenyl]acetyl}-N-[3-(2-oxo-1-pyrrolidinyl)propyl]glycyl}amino)benzoic acid] | – | – | < 500 nM |
| Cc1ccccc1NC(=O)Nc1ccc(CC(=O)N[C@@H](CCCN)C(=O)Nc2ccc(C(=O)O)cc2)cc1 [Example 41, 4-[(N^2-{[4-({[(2-methylphenyl)amino]carbonyl}amino)phenyl]acetyl}-L-ornithyl)amino]benzoic acid] | – | – | < 500 nM |
| Cc1ccccc1NC(=O)Nc1ccc(CC(=O)N[C@@H](Cc2ccccc2)C(=O)Nc2ccc(C(=O)O)cc2)cc1 [Example 88, 4-[(N-{[4-({[(2-methylphenyl)amino]carbonyl}amino)phenyl]acetyl}-L-phenylalanyl)amino]benzoic acid] | – | – | < 500 nM |
| Cc1ccccc1NC(=O)Nc1ccc(CC(=O)N[C@@H](Cc2cnc[nH]2)C(=O)Nc2ccc(C(=O)O)cc2)cc1 [Example 47, 4-[(N-{[4-({[(2-methylphenyl)amino]carbonyl}amino)phenyl]acetyl}-L-histidyl)amino]benzoic acid] | – | – | < 500 nM |
| Cc1ccccc1NC(=O)Nc1ccc(CC(=O)N(CC(=O)Nc2ccc(C(=O)O)cc2)Cc2ccncc2)cc1 [Example 71, 4-{[N-{[4-({[(2-methylphenyl)amino]carbonyl}amino)phenyl]acetyl}-N-(4-yridinylmethyl)glycyl]amino}benzoic acid] | – | – | < 500 nM |

More lines, now with the values ahead:

| IC50 [1, 2] | melting point | IC50 ([1]; Ramos) | Structure (SMILES) |
| --- | --- | --- | --- |
| – | 232 to 233 °C | < 500 nM | Cc1ccccc1Nc1nc2ccc(CC(=O)N(CCc3ccccc3)CC(=O)Nc3ccc(C(=O)O)cc3)cc2o1 [Example 82, 4-{[N-({2-[(2-methylphenyl)amino]-1,3-benzoxazol-6-yl}acetyl)-N-(2-phenylethyl)glycyl]amino}benzoic acid] |
| – | 170 to 171 °C | 2000 to 10000 nM | O=C(CN(CCc1ccc(Cl)c(Cl)c1)C(=O)Cc1ccc2nc(Nc3ccccc3)oc2c1)Nc1ccc(C(=O)O)cc1 [Example 79] |
| – | 175 to 176 °C | < 500 nM | Cc1ccccc1Nc1nc2ccc(CC(=O)N(CCc3ccccn3)CC(=O)Nc3ccc(C(=O)O)cc3)cc2o1 [Example 83, 4-({N-({2-[(2-methylphenyl)amino]-1,3-benzoxazol-6-yl}acetyl)-N-[2-(2-pyridinyl)ethyl]glycyl}amino)benzoic acid] |
| – | 267 to 268 °C | < 500 nM | Cc1ccccc1Nc1nc2ccc(CC(=O)NCC(=O)Nc3ccc(C(=O)O)cc3)cc2o1 [Example 81, 4-{[N-({2-[(2-methylphenyl)amino]-1,3-benzoxazol-6-yl}acetyl)glycyl]-amino}benzoic acid] |
| – | 252 to 253 °C | < 500 nM | O=C(CN(CCc1ccccn1)C(=O)Cc1ccc2nc(Nc3ccccc3)oc2c1)Nc1ccc(C(=O)O)cc1 [Example 76, 4-({N-[(2-anilino-1,3-benzoxazol-6-yl)acetyl]-N-[2-(2-pyridinyl)ethyl]glycyl}amino)benzoic acid] |
| – | – | < 500 nM | COc1cccc(CCN(CC(=O)Nc2ccc(C(=O)O)cc2)C(=O)Cc2ccc(NC(=O)Nc3ccccc3C)cc2)c1 [Example 85, 4-[(N-[2-(3-methoxyphenyl)ethyl]-N-{[4-({[(2-methylphenyl)amino]-carbonyl}amino)phenyl]acetyl}glycyl)amino]benzoic acid] |
| – | – | < 500 nM | Cc1ccccc1NC(=O)Nc1ccc(CC(=O)N(CC(=O)Nc2ccc(C(=O)O)cc2)Cc2ccccn2)cc1 [Example 70, 4-{[N-{[4-({[(2-methylphenyl)amino]carbonyl}amino)phenyl]acetyl}-N-(2-pyridinylmethyl)glycyl]amino}benzoic acid] |
| – | – | < 500 nM | COc1cccc(CCN(CC(=O)Nc2ccc(C(=O)O)cc2)C(=O)Cc2ccc3nc(Nc4ccccc4)oc3c2)c1 [Example 87, 4-({N-[(2-anilino-1,3-benzoxazol-6-yl)acetyl]-N-[2-(3-methoxyphenyl)ethyl]-glycyl}amino)benzoic acid] |
| – | – | < 500 nM | Cc1ccccc1NC(=O)Nc1ccc(CC(=O)N(CC(=O)Nc2ccc(C(=O)O)cc2)Cc2cccnc2)cc1 [Example 69, 4-{[N-{[4-({[(2-methylphenyl)amino]carbonyl}amino)phenyl]acetyl}-N-(3-pyridinylmethyl)glycyl]amino}benzoic acid] |
